By IC50 is commonly meant the midpoint of a concentration-inhibition curve.

This note sets out measurements from ChEMBL document CHEMBL4680258, “Synthesis, characterization and carbonic anhydrase I and II inhibitory evaluation of new sulfonamide derivatives bearing dithiocarbamate” (Eur J Med Chem, 2020).

The structures appear in SMILES notation. Bounds are passed on as bounds.

The assay has as its system NIH3T3. Nature of the assay: Cytotoxicity against mouse NIH/3T3 cells assessed as reduction in cell viability incubated for 24 hrs by MTT assay. The following applies: NIH3T3, 24 h. It is filed as cell-based.

For the compound `NS(=O)(=O)c1ccc(NC(=O)CSC(=S)N2CCN(c3ccccn3)CC2)cc1`, the IC50 worked out at 18.5 µM.

As to `NS(=O)(=O)c1ccc(NC(=O)CSC(=S)N2CCN(c3ncccn3)CC2)cc1`, the IC50 is 16.5 µM.

For `Cc1ccc(CN2CCN(C(=S)SCC(=O)Nc3ccc(S(N)(=O)=O)cc3)CC2)cc1`, the half-inhibitory concentration (IC50) was 58.1 µM.

Turning to `CN1CCN(C(=S)SCC(=O)Nc2ccc(S(N)(=O)=O)cc2)CC1`, the IC50 came to 14.5 µM.

As to `CN(C)CCN1CCN(C(=S)SCC(=O)Nc2ccc(S(N)(=O)=O)cc2)CC1`, the IC50 was above 1000 µM.

In the case of `CN(C)CCCN1CCN(C(=S)SCC(=O)Nc2ccc(S(N)(=O)=O)cc2)CC1`, the IC50 was above 1000 µM.
